pIC50: −log10 of the molar value.
Biological target: T1, Tyrosine-protein phosphatase non-receptor type 11 (Homo sapiens, UniProt Q06124)
T1 sequence (Q06124 whole entry): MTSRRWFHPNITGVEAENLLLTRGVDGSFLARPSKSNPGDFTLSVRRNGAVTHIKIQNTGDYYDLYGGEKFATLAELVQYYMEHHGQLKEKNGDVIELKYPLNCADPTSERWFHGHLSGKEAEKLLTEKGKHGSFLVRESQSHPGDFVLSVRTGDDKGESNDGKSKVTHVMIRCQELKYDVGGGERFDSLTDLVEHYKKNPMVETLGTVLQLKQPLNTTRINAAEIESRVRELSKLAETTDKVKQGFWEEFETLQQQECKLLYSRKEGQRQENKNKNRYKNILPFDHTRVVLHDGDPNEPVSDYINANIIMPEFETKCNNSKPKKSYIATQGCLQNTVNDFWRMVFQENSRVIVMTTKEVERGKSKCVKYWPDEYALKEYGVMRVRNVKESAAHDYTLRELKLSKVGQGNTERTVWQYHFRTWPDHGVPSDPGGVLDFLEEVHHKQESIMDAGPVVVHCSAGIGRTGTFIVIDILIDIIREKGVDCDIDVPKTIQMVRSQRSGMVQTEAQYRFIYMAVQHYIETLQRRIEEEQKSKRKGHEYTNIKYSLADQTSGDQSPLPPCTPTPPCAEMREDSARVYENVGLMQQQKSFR
Assay: Biochemical Assay: The inhibition of SHP2 by compounds of the invention was monitored using the surrogate substrate DiFMUP after protein activation by a peptide bearing two appropriately spaced phosphotyrosine. Full length SHP2 protein (Recombinant HumanSHP-2, E. coli derived Ser2Arg593, N-terminal 6His tag from R&D systems; […]) was incubated with activating peptide, IRSI_2pY (New England Peptide, 140 nM) and DiFMUP (molecular probes, 80 uM) at RT in buffer (HEPES pH 7.2 60 mM, DDT 5 mM, KCl 75 mM, NaCl 75 mM, EDTA 1 mM, Tween 20 0.05%) in presence of compound (10 concentrations range, top concentration 50 Î¼M) for 60 min. The generation of the DiFMU product by activated SHP2 was monitored through Fluorescence measurement with a PerkinElmer Envision reader.

| Structure (SMILES) | pIC50 |
| --- | --- |
| CC1(N)CCN(c2nc(Cl)c(-c3cccc(Cl)c3Cl)c(C(N)=O)n2)CC1 | 7.22 |
| C[C@]12CCCCC[C@](C)(CN(c3nc(N)c(-c4cccc(Cl)c4Cl)c(C(N)=O)n3)C1)[C@H]2N | < 5.00 |
| CC1(N)CCN(c2ncc(-c3cccc(Cl)c3Cl)c(C(N)=O)n2)CC1 | 5.43 |
